Test results from US7220746B2, “Pyrrolidinedione substituted piperidine-phthalazones as PDE4 inhibitors” (Altana Pharma AG, priority 2002, dated 2007).

Tested on: PDE4 activity (cytosol from human neutrophils)
Test: Inhibition of PDE4 activity
Assay type: biochemical
Set-up: unit not given here
Settings: 0.5 μM cAMP, Motapizone 1 μM included to suppress PDE3
Procedure: Method for Measuring Inhibition of PDE4 Activity
PDE4 activity was determined as described by Thompson et al. (Adv Cycl Nucl Res 10: 69–92, 1979) with some modifications (Bauer and Schwabe, Naunyn-Schmiedeberg's Arch Pharmacol 311: 193–198, 1980). At a final assay volume of 200 μl (96well microliter plates) the assay mixture contained 20 mM Tris (pH 7.4), 5 mM MgCl2, 0.5 μM cAMP, [^3H]CAMP (about 30,000 cpm/assay), the test compound and an aliquot of cytosol from human neutrophils which mainly contains PDE4 activity as described by Schudt et al. (Naunyn-Schmiedeberg's Arch Pharmacol 344: 682–690, 1991); the PDE3-specific inhibitor Motapizone (1 μM) was included to suppress PDE3 activity originating from contaminating platelets. […]
After preincubation for 5 min at 37° C., the reaction was started by the addition of substrate (cAMP) and the assays were incubated for further 15 min at 37° C. […] The columns were eluted with 2 ml of 30 mM ammonium formiate (pH 6.0) and the eluate was counted for radioactivity. Results were corrected for blank values (measured in the presence of denatured protein) which were below 5% of total radioactivity. […] The IC50-values for the compounds according to the invention for the inhibition of the PDE4 activity were determined from the concentration-inhibition curves by nonlinear-regression.

COc1ccc(C2=NN(C3CCN(C(=O)CN4C(=O)CCC4=O)CC3)C(=O)[C@@H]3CC=CC[C@H]23)cc1OC [Example 1, 1-(2-{4-[(4aS,8aR)-4-(3,4-Dimethoxy-phenyl)-1-oxo-4a,5,8,8a-tetrahydro-yl]-piperidin-1-yl}-2-oxo-ethyl)-pyrrolidine-2,5-dione]
Inhibition of PDE4 activity, −logIC50: 10.66
